Assay results as given in ChEMBL document CHEMBL1148982, “Novel cytotoxic thiodiketopiperazine derivatives from a Tilachlidium sp” (2004).

Test system: P388
Assay: Cytotoxicity against mouse P388 cells after 1 to 11 days by MTT assay
Assay type: functional
Details: read-out: ID50 (the source's name)

Row | Structure (SMILES) | IC50 [nM]
1 | CS[C@@]1(CO)C(=O)N2[C@H]3Nc4ccccc4[C@@]3(c3c[nH]c4ccccc34)[C@H](O)[C@]2(SC)C(=O)N1C [T988 B] | 2180
2 | CN1C(=O)[C@]23SS[C@]1(CO)C(=O)N2[C@H]1Nc2ccccc2[C@@]1(c1c[nH]c2ccccc12)[C@@H]3O [T988 C] | 560
3 | CN1C(=O)[C@]23SSS[C@]1(CO)C(=O)N2[C@H]1Nc2ccccc2[C@@]1(c1c[nH]c2ccccc12)[C@@H]3O | 250
